Test results published in article PMC11350846, “Synthesis of Second-Generation Analogs of Temporin-SHa Peptide Having Broad-Spectrum Antibacterial and Anticancer Effects” (Antibiotics, 2024).
Where a SMILES comes first, the peptide text is derived from it. [ ]: non-standard residue; d: D form. d2Nal = N[C@H](Cc1ccc2ccccc2c1)C(=O)O

How the values were obtained:
A. baumannii (DSM 30007) = conditions: A. baumannii, from MIC
Method: (§1) The peptides were assessed for their antibacterial activity by determining the minimum inhibitory concentration (MIC) using the two-fold serial dilution method following the National Committee of Clinical Laboratory Standards, as previously described. Gram-negative (Acinetobacter baumannii (DSM 30007), Escherichia coli (ATCC 8739), Enterobacter cloacae (DSM 30054), Helicobacter pylori (ATCC 43504), Klebsiella pneumoniae (DSM 26371), Pseudomonas aeruginosa (ATCC 9027)) and Gram-positive bacteria (Bacillus subtilis (ATCC 6633), Enterococcus faecalis (DSM 2570), Enterococcus faecium (DSM 20477), Staphylococcus aureus (ATCC 6538)) were used for the antibacterial activity assays. In brief, 3 mL of Mueller–Hinton (MH) broth was inoculated with single clusters of the various bacterial strains and incubated overnight at 37 °C with agitation at 200 rpm. The next day, the bacterial solution was diluted with sterile MH by 1/100 and further incubated at 37 °C and 200 rpm until the bacteria reached the log phase growth (OD600nm around 0.6). The bacterial suspension was then adjusted to a density of approximately 10^5 bacteria/mL, and 100 μL was added per well of 96-well microplates (Greiner BioOne, Les Ulis, France), followed by exposure to increasing concentrations of peptides (from 0 to 100 µM, 1:2 dilution). Plates were then incubated at 37 °C for 18-24 h under either aerobic (for A. baumannii, E. cloacae, E. coli, P. aeruginosa, B. subtilis, and S. aureus) or micro-aerobic conditions generated using GasPak units (for E. faecalis, E. faecium and, H. pylori). […] The optical density (OD) at 600nm was measured using a microplate reader (Biotek, Synergy Mx, Les Ulis, France) after the final incubation. All experiments were performed in triplicate (n = 3).

E. cloacae (DSM 30054) = test system: E. cloacae (DSM 30054)
Method: as §1

E. coli (ATCC 8739) = conditions: E. coli, from MIC
Method: as §1

E. faecalis (DSM 2570) = test system: E. faecalis (DSM 2570)
Method: as §1

E. faecium (DSM 20477) = conditions: E. faecium, from MIC
Method: as §1

K. pneumonia (DSM 26371) = conditions: K. pneumonia, from MIC
Method: as §1

[1] = test system: P. aeruginosa (ATCC 9027); conditions: P. aeruginosa, from MIC
Method: as §1

Breast Cancer (MCF-7) = assay type: cell-based, human; conditions: 48 h
Method: (§2) The antiproliferative activity of the peptides was evaluated, as previously described using human cancer cell lines (A549 (lung), A2780 (ovary), HepG-2 (liver), MCF-7 (breast), MiaPaCa-2 (pancreas), MNT-1 (skin), and PC-3 (prostate)) and normal human lung fibroblasts (IMR-90) or epithelial cells (BEAS-2B). The cells were cultured in DMEM supplemented with 10% FBS, 1% L-glutamine, and 1% antibiotics at 37 °C in a 5% CO2 incubator. For the antiproliferative assay, cells were seeded in 96-well plates at approximately 3000 cells/well. Twenty-four hours later, cells were treated with increasing concentrations of peptides (1:2 serial dilution from 100 µM to 0 µM) for 48 h. After treatment, the number of viable cells was determined using a resazurin-based assay, and the fluorescence intensity was measured with a microplate reader (Ex 530 nm/Em 590 nm). The IC50 values of the peptides (i.e., the concentrations causing 50% inhibition of cell proliferation) were determined using GraphPad® Prism 7 software. The experiments were performed in triplicate (n = 3). The cytotoxicity of the peptides was also evaluated using confluent/no-dividing cells, as previously described. Briefly, human cells were seeded onto 96-well plates at 20,000 cells/well. When they reached 80–90% confluence (after 24–48 h), cells were treated with escalating concentrations of peptides. After 48h incubation, cell viability was measured using a resazurin assay and CC50 (i.e., the concentrations causing 50% inhibition of cell viability) and determined using GraphPad® Prism 7 software. The experiments were performed in triplicate (n = 3).

Liver Cancer (HepG-2) = assay type: cell-based, human; conditions: 48 h
Method: as §2

Lung Cancer (A549) = assay type: cell-based, human; conditions: 48 h
Method: as §2

[2] = test system: Normal Lung Fibroblast (IMR-90); assay type: cell-based, human; conditions: 48 h
Method: as §2

Ovarian Cancer (A2780) = assay type: cell-based, human; conditions: 48 h
Method: as §2

[3] = test system: Pancreatic Cancer (MiaPaCa-2); assay type: cell-based, human; conditions: 48 h
Method: as §2

Prostate Cancer (PC-3) = assay type: cell-based, human; conditions: 48 h
Method: as §2

Skin Cancer (MNT-1) = assay type: cell-based, human; conditions: 48 h
Method: as §2

[4] = Circular dichroism, secondary structure (Bestsel); assay type: physicochemical; conditions: CD in 20 mM SDS
Method: Circular dichroism of temporin SHa, [G10a]-SHa and newly synthesised second-generation analogs of [G10a]-SHa in 20 mM SDS are shown in Figure 2. In lipidic environments mimicked by SDS, peptides adopt an alpha helical structure due to their amphipathic nature. This structural feature is important for their antimicrobial activity, allowing for their insertion into bacterial membranes. The hydrophobic region of the peptide interacts with the hydrophobic portion of the lipid while the hydrophilic region remains exposed to the aqueous environment. The percentage of alpha helix, as well as the percentage of other secondary structures, was determined from CD data using Bestsel software (https://bestsel.elte.hu/index.php, (accessed on 22 June 2024)) (Table 3). Temporin-SHa (1) adopted a 49.5% α-helical structure, while its first-generation analog [G10a]-SHa (2) acquired a 82.4% alpha helical structure. The 84.6%, 88.7%, 4.7%, and 53.8% alpha helical structures were acquired for second-generation analogs 3, 4, 5, and 6, respectively.
The far-ultraviolet CD spectra were obtained using a JASCO J-810 spectropolarimeter (Jasco, Tokyo, Japan). In addition to this, the quartz cuvette of 10 mm path length was used. The temperature was maintained at 22 °C, and the output of the instrument was calibrated using D-(+)-10-camphorsulfonic acid. The peptides, which were present at a concentration of 1.0 mg/mL, were dissolved completely in 20 mM SDS at a concentration of 15 µM [21]. The instrument was set to record wavelengths ranging from 190 to 260 nm with a bandwidth of 2 nm. Ten consecutive scans (accumulations) were recorded for each spectrum at a rate of 50 nm/min, and the baseline was acquired under the same conditions.

[5] = test system: Gram-negative and Gram-positive bacterial strains
Method: as §1

[6] = test system: Normal Lung Epithelium (BEAS-2B); assay type: cell-based, human; conditions: 48 h
Method: as §2

[7] = test system: human cancer and normal/non-cancerous cells; assay type: cell-based; conditions: tested human cells, up to 100 µM
Method: as §2

IC50 (Breast Cancer (MCF-7))	IC50 (Liver Cancer (HepG-2))	IC50 (Lung Cancer (A549))	IC50 (Ovarian Cancer (A2780))	IC50 [3]	IC50 (Prostate Cancer (PC-3))	IC50 (Skin Cancer (MNT-1))	Antiparallel [4]	Helix (alpha helical structure) [4]	Others [4]	Parallel [4]	Turn [4]	Structure (SMILES)	fold activity compared to [G10a]-SHa (2) (E. faecium (DSM 20477))	IC50 [2]	IC50 [6]	further results
37.4 ± 11.8 µM	64.3 ± 3.5 µM	32.6 ± 2.4 µM	21.8 ± 3.2 µM	61.4 ± 4.1 µM	11.7 ± 1.2 µM	21.7 ± 6.9 µM	11.30%	88.70%	0.00%	0.00%	0.00%	CC[C@H](C)[C@H](NC(=O)CNC(=O)[C@H](CO)NC(=O)[C@H](CC(C)C)NC(=O)[C@@H](N)Cc1ccccc1)C(=O)N[C@H](C(=O)NCC(=O)N[C@@H](CCSC)C(=O)N[C@@H](CC(C)C)C(=O)N[C@@H](CCCCN)C(=O)N[C@@H](CCCCN)C(=O)N[C@@H](CC(C)C)C(=O)N[C@@H](Cc1ccccc1)C(N)=O)C(C)C [[G10K]-SHa (4), H-Phe^1-Leu^2-Ser^3-Gly^4-IIe^5-Val^6-Gly^7-Met^8-Leu^9-L-Lys^10-Lys^11-Leu^12-Phe^13-NH2] (H-FLSGIVGMLKKLF-NH2)	at least 16	> 100 µM	–	fold activity compared to [G10a]-SHa (2) (A. baumannii (DSM 30007)): at least four times more active; fold activity compared to [G10a]-SHa (2) (E. cloacae (DSM 30054); E. cloacae, from MIC): about eight times more active; fold increase in activity relative to the parent peptide (1) (E. cloacae (DSM 30054); Enterobacter cloacae DSM 30054, from MIC): 4; fold activity compared to [G10a]-SHa (2) (E. coli (ATCC 8739)): at least four times more active; fold increase in activity relative to the parent peptide (1) (E. faecalis (DSM 2570); Enterococcus faecalis DSM 2570, from MIC): 4; fold activity compared to [G10a]-SHa (2) (K. pneumonia (DSM 26371)): at least four times more active; fold activity compared to [G10a]-SHa (2) [1]: at least four times more active; Helix (alpha helical structure) ([4]; listed as 4): 88.7%
13.1 ± 3.6 µM	40.3 ± 7.2 µM	–	23.2 ± 3.1 µM	23.9 ± 3.9 µM	19.3 ± 1.2 µM	44.1 ± 8.1 µM	15.10%	53.80%	0.00%	31.10%	0.00%	CC[C@H](C)[C@H](NC(=O)CNC(=O)[C@H](CO)NC(=O)[C@H](CC(C)C)NC(=O)[C@@H](N)Cc1ccccc1)C(=O)N[C@H](C(=O)NCC(=O)N[C@@H](CCSC)C(=O)N[C@@H](CC(C)C)C(=O)N[C@H](Cc1ccc(O)cc1)C(=O)N[C@@H](CCCCN)C(=O)N[C@@H](CC(C)C)C(=O)N[C@@H](Cc1ccccc1)C(N)=O)C(C)C [[G10y]-SHa (6), H-Phe^1-Leu^2-Ser^3-Gly^4-IIe^5-Val^6-Gly^7-Met^8-Leu^9-D-Tyr^10-Lys^11-Leu^12-Phe^13-NH2] (H-FLSGIVGML[dY]KLF-NH2)	at least eight times more activity	–	–	fold activity compared to [G10a]-SHa (2) (E. faecalis (DSM 2570); E. faecalis, from MIC): twice the activity; Helix (alpha helical structure) ([4]; listed as 6): 53.8%
> 100 µM	> 100 µM	> 100 µM	> 100 µM	> 100 µM	> 100 µM	> 100 µM	34.10%	4.70%	47.20%	1.10%	12.90%	CC[C@H](C)[C@H](NC(=O)CNC(=O)[C@H](CO)NC(=O)[C@H](CC(C)C)NC(=O)[C@@H](N)Cc1ccccc1)C(=O)N[C@H](C(=O)NCC(=O)N[C@@H](CCSC)C(=O)N[C@@H](CC(C)C)C(=O)N[C@H](Cc1ccc2ccccc2c1)C(=O)N[C@@H](CCCCN)C(=O)N[C@@H](CC(C)C)C(=O)N[C@@H](Cc1ccccc1)C(N)=O)C(C)C [[G10n]-SHa (5), H-Phe^1-Leu^2-Ser^3-Gly^4-IIe^5-Val^6-Gly^7-Met^8-Leu^9-D-NAL^10-Lys^11-Leu^12-Phe^13-NH2] (H-FLSGIVGML[d2Nal]KLF-NH2)	–	> 100 µM	> 100 µM	MIC values, range over strains [5]: 50 to 100 µM; activity against the tested human cells [7]: inactive; Helix (alpha helical structure) ([4]; listed as 5): 4.7%
4.4 ± 1.3 µM	19.8 ± 1.7 µM	3.6 ± 0.7 µM	6.6 ± 0.5 µM	6.8 ± 0.4 µM	4.9 ± 0.3 µM	5.5 ± 0.4 µM	15.40%	84.60%	0.00%	0.00%	0.00%	CC[C@H](C)[C@H](NC(=O)CNC(=O)[C@H](CO)NC(=O)[C@H](CC(C)C)NC(=O)[C@@H](N)Cc1ccccc1)C(=O)N[C@H](C(=O)NCC(=O)N[C@@H](CCSC)C(=O)N[C@@H](CC(C)C)C(=O)N[C@H](Cc1ccccc1)C(=O)N[C@@H](CCCCN)C(=O)N[C@@H](CC(C)C)C(=O)N[C@@H](Cc1ccccc1)C(N)=O)C(C)C [[G10f]-SHa (3), H-Phe^1-Leu^2-Ser^3-Gly^4-IIe^5-Val^6-Gly^7-Met^8-Leu^9-D-Phe^10-Lys^11-Leu^12-Phe^13-NH2] (H-FLSGIVGML[dF]KLF-NH2)	32	14.2 ± 0.6 µM	7.8 ± 0.3 µM	Helix (alpha helical structure) ([4]; listed as 3): 84.6%
